One series concerns the target T1, Tau protein aggregation (Homo sapiens, UniProt P10636).
T1 construct: For the cloning and overexpression of full-length tau protein; expressed in transfected cells; host or cells: E. coli BL21 (DE3) carrying pTARA and pRKT42
Nature of the series: Thioflavin S assay of tau protein aggregation in E. coli cells overexpressing tau. The note with it: read-out: Tau inhibition %. In kind it is cell-based, Escherichia coli. Here is the method:
(§1) The antiaggregating profiles of both series A and B were evaluated using a fluorescence Thioflavin S (ThS) assay in cellulo, which monitors ThS fluorescence in the presence of β-sheet-rich structures, such as Aβ and tau protein aggregates. This method, based on recombinant Escherichia coli (E. coli) bacteria overexpressing insoluble aggregates, offers a simple and cost-effective approach to model aggregation processes in mammalian systems and has been validated for use in drug discovery studies. , Compounds were tested at a screening concentration of 50 μM for their ability to inhibit Aβ42 aggregation. The results, summarized in Table , reveal distinct antiaggregating profiles between series A and B, which are once again influenced by their structural differences.
This strategic extension aimed to validate the chromeno[3,4-b]-xanthone scaffold for related aggregation targets, considering the structural and pathological similarities between Aβ and tau aggregation processes. […]. […] Nevertheless, it is important to interpret the results cautiously, as the inability of certain compounds to cross bacterial membranes, may have underestimated their true inhibitory activity in the assay.
For the cloning and overexpression of full-length tau protein, E. coli BL21 (DE3) competent cells were transformed first with the pTARA vector containing the RNA polymerase gene of phage T7 (T7RP), controlled by the PBAD promoter. Subsequently, E. coli BL21(DE3) competent cells containing pTARA were transformed with the pRKT42 vector encoding four repeats of tau protein in two inserts. Similar to the procedure for Aβ42, overnight cultures were prepared by inoculating colonies of BL21 (DE3) cells bearing the plasmids in M9 medium supplemented with 0.5% glucose, 50 μg mL^–1 ampicillin, and 12.5 μg mL^–1 chloramphenicol at 37 °C. Upon induction, a 1:500 dilution of the overnight culture was added to fresh M9 minimal medium containing 0.5% glucose, 50 μg mL^–1 ampicillin, 12.5 μg mL^–1 chloramphenicol, and 25 μM ThS. The subsequent steps mirrored those for the Aβ assay, including the addition of the compound to be tested dissolved in DMSO and 10 μL of 25% arabinose or, alternatively, 10 μL of water for the noninduced controls, with a final compound concentration of […]. Negative controls for tau overexpression utilized free DMSO.
(§2) ThS (T1892) and all other chemical reagents were purchased from Sigma (St. Louis, MO). Stock solutions of ThS (250 μM) were prepared using doubly distilled water purified via a Milli-Q system (Millipore). For the fluorescence assay, ThS spectra were recorded utilizing an AmincoBowman series 2 luminescence spectrophotometer (Aminco-Bowman AB2, SLM Aminco, Rochester, NY) within the range of 460 to 600 nm at a temperature of 25 °C. The excitation wavelength employed was 445 nm, with slit widths set at 4 nm. The emission at 485 nm, corresponding to the ThS peak observed in the presence of amyloids, was recorded. To standardize ThS fluorescence relative to bacterial concentration in both in vitro and cell-based assays, the OD600 was determined using a Shimadzu UV-2401 PC UV–vis spectrophotometer. Fluorescence normalization was executed by setting the ThS fluorescence of bacterial cells expressing the peptide or protein in the absence of the drug as 100%, while that of bacterial cells not expressing the peptide or protein was established as 0%.

The target in series [1] is T2, eqBChE (equine serum butyrylcholinesterase) (Equus caballus, UniProt P81908).
T2 construct: eqBChE (equine serum butyrylcholinesterase); from tissue; host or cells: equine serum
T2 sequence (P81908 whole entry): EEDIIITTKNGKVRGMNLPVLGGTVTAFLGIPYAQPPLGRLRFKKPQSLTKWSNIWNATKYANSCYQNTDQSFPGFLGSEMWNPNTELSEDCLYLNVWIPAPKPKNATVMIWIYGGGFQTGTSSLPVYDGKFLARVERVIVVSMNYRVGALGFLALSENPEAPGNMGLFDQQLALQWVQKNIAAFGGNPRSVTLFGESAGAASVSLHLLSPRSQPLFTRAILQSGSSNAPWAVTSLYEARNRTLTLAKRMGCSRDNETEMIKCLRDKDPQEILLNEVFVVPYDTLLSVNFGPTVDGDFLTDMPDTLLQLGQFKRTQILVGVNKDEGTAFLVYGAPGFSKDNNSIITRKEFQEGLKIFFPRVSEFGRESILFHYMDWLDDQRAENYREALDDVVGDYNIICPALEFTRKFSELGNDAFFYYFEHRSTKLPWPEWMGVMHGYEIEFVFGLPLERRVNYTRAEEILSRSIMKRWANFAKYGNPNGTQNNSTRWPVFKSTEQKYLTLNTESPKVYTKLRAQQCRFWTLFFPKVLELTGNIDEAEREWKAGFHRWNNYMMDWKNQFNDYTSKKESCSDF
Kind of series: Cholinesterase inhibition assay (modified Ellman's method), eqBChE. In kind it is biochemical. From the text: (§3) Compound series A and B were initially screened for their cholinesterase activity against eeAChE (Electrophorus electricus AChE) and eqBChE (equine serum butyrylcholinesterase), using an adaptation of the Ellman’s method. […]. […] Similarly, replacing the terminal triple bond in 7l with a nitrile group reduced its activity, while replacing the O-propargyl group with an N,N-dipropargyl group in 10 enhanced the inhibition of both enzymes, particularly BChE (Table ). The installation of an additional aryl ring in 7o further improved AChE inhibition, slightly increasing selectivity toward this enzyme. […]. […]. […]. The inhibitory activity of the synthesized compounds toward eeAChE and eqBChE was evaluated spectrophotometrically through a 96-well microplate modified Ellman’s method. The solutions of both enzymes were prepared as 0.025 U/mL in phosphate buffer at pH 7, from stock solutions of 5.05 U/mL and 7.50 U/mL, respectively. The stock solutions for the target compounds (0.1 M) were prepared in dimethyl sulfoxide (DMSO). […] The reaction mixture was prepared with 100 μL of the enzyme (eeAChE or eqBChE) and 50 μL of the test compound (or DMSO/water, not exceeding 0.2% of DMSO in the wells; i.e blank samples). After 5 min of the preincubation period at 37 °C, 50 μL of ATChI or BTChI and 50 μL of DTNB were added to each well, thus initiating the enzymatic reaction. The absorbance values were measured at 415 nm, for a total of 7.5 min, at every 2.5 min, using a microplate reader (Synergy multimode reader; BioTek). […]. All experiments were performed in triplicate.

The target in series [2] is eeAChE (Electrophorus electricus AChE) (Electrophorus electricus, UniProt O42275). Kind of series: Cholinesterase inhibition assay (modified Ellman's method), eeAChE. Type of series: biochemical.
Chain of eeAChE (Electrophorus electricus AChE) (O42275 24-633): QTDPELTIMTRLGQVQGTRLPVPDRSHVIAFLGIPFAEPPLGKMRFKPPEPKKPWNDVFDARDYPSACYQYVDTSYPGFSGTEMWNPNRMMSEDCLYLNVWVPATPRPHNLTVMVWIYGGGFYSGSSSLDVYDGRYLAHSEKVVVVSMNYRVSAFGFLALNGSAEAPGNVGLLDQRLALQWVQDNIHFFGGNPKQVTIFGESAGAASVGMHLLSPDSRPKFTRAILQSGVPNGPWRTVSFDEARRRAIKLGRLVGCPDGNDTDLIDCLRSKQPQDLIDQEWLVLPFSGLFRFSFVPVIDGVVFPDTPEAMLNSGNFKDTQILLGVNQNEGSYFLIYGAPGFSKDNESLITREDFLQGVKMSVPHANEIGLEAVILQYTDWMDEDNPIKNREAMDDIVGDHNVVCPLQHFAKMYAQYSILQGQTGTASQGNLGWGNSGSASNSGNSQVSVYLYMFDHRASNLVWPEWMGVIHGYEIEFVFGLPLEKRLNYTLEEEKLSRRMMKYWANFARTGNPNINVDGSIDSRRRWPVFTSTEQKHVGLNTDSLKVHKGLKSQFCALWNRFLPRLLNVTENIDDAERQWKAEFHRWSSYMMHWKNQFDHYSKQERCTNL
Description: as §3

A further series in a line: in vitro. Here is the method:
To assess BBB permeability, a parallel artificial membrane permeability assay (PAMPA)-BBB was performed, which predicts passive BBB permeability using a brain lipid porcine membrane.
The prediction of the brain penetration was evaluated using a PAMPA-BBB. […] Next, 100 μL of these stock solutions were added to a solution of 1400 μL of EtOH and 3500 μL of PBS at pH 7.4, to reach 30% of EtOH concentration in the experiment. These solutions were filtered, using Filter PDVF membrane units (diameter 30 mm, pore size 0.45 μm, from Symta). After this, the acceptor 96-well microplate (Multiscreen, catalogue no. MAMCS9610, from Millipore) was filled with 180 μL of PBS/EtOH (70/30). […] After 5 min, 180 μL of each compound solution was added. 1–2 mg of each selected compound was dissolved in 1500 μL of EtOH and 3500 μL of PBS at pH 7.4, filtered, and then added to the donor 96-well plate to determine their ability to cross the brain barrier. After this, the donor plate was carefully put on the acceptor plate to form a “sandwich” and incubated for 2.5 h at 25 °C. During this period, the compounds diffused from the donor plate through the brain lipid membrane into the acceptor plate. Afterward, the donor plate was removed. A 96-well plate UV reader (Thermoscientific, Multiskan spectrum) was used to determine the concentration of compounds and commercial drugs in the acceptor and donor wells. Every sample was analyzed at three to five wavelengths, in three wells, and in two independent runs. […] Ten quality control compounds (previously mentioned) of known BBB permeability were included in each experiment to validate the analysis set.

A further series addresses T3, Aβ42 aggregation (Homo sapiens, UniProt P05067).
T3 construct: expressed in transfected cells; host or cells: E. coli BL21 (DE3), pET vector
Nature of the series: Thioflavin S assay of Aβ42 aggregation in E. coli cells overexpressing Aβ42. In kind it is cell-based, Escherichia coli. The note with it: read-out: Aβ42 inhibition %. Here is the method:
as §1
42 Amino acid Aβ42 was cloned and overexpressed in E. coli BL21 (DE3) competent cells using the pET vector harboring the DNA sequence of Aβ42. Due to the addition of the initiation codon ATG preceding genes, the resulting overexpressed peptide contained an additional methionine residue at its N-terminus. For the preparation of overnight cultures, a colony of BL21 (DE3) cells carrying the plasmid for expression was inoculated in 10 mL of M9 minimal medium supplemented with 50 μg mL^–1 kanamycin at 37 °C. Subsequently, a 1:500 dilution of the overnight culture was added to fresh M9 minimal medium containing 50 μg mL^–1 kanamycin and 25 μM ThS. The bacterial culture was then incubated at 37 °C with agitation at 250 rpm. Upon reaching an OD600 of 0.6, 980 μL of the culture was transferred into 1.5 mL Eppendorf tubes, each containing 10 μL of the compound to be tested dissolved in DMSO and 10 μL of 100 mM isopropyl 1-thio-β-D-galactopyranoside (IPTG) or, alternatively, 10 μL of water for the noninduced controls. The final compound concentration was adjusted to […]. The samples were allowed to grow overnight at 37 °C with agitation at 1400 rpm using a Thermomixer (Eppendorf). Negative controls, representing maximum amyloid presence, utilized free DMSO.
as §2

The source of these data is article PMC12818745 (ACS Chemical Neuroscience, 2025).

SMILES strings stand for the structures.

T1 sequence (P10636 other isoform, or with tags, fused parts or gaps): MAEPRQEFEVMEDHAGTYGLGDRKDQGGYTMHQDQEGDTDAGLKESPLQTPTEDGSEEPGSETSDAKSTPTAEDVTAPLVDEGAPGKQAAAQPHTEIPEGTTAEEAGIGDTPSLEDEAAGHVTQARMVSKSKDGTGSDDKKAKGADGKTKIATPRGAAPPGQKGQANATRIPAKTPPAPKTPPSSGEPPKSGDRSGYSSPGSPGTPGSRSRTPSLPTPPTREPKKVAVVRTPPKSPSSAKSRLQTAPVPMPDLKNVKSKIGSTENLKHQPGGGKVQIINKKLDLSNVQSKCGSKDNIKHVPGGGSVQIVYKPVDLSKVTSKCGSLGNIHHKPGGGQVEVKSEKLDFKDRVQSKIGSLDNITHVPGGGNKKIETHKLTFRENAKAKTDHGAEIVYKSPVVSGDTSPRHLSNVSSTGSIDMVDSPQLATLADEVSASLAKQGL
T3 sequence (P05067 672-713): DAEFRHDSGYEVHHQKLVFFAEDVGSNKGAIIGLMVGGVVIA

In general, inhibition refers to the percentage by which the read-out fell short of the control. The term IC50 denotes the concentration at which inhibition is half-maximal. One may read the Papp as a coefficient for how fast a substance crosses the barrier. Read a low Papp as poor permeation. `COc1ccc2c(=O)c3cc4c(cc3oc2c1)-c1cc(Cl)cc(Br)c1OC4` [Compound 11s, 4-Bromo-2-chloro-11-methoxy-6H,8H-chromeno[3,4-b]xanthen-8-one]: the inhibition at 50 µM on Tau protein aggregation is 58 ± 7.1%; at Aβ42 aggregation it was 46 ± 6.3%. The IC50 stood at 7 ± 0.4 µM in series [1] and 1.7 ± 1.2 µM in series [2]. In series [2] (ratio eqBChE IC50/eeAChE IC50), the “SI eeAChE” value is given as 4.12. In the series “in vitro” (class from PAMPA-BBB P e), the “Prediction (penetration into the CNS)” value is “CNS+ (High BBB permeation predicted (CNS+) P e > 3.93)”. Further, in “in vitro” (pig, PAMPA, pH 7.4), the Papp at 2.5 h is 8.7 ± 0.61 ×10⁻⁶ cm/s.
